Test results from patent US6806257B1, “Flavones as inducible nitric oxide synthase inhibitors, cyclooxygenase-2 inhibitors and potassium channel activators” (priority 1999, dated 2004).
“Also recorded” adds a separate entry of the source. Read-outs that look alike come from different tables or passages of the source.

Assays:
[1] = system: LPS-induced NO production in RAW264.7 macrophages; test: LPS-induced nitrite (NO) production in RAW264.7 macrophages, Griess reaction; type: cell-based, mouse; conditions: for NO: 24 hours
Procedure: (§1) Cells. RAW264.7, a mouse macrophage cell line, was obtained from American Type Culture Collection. Cells were cultured in RPMI-1640 medium (available from Gibco Life Technology, in Gaithersburg, Md.) supplemented with 2 mM L-glutamine, antibiotics (100 units/ml penicillin-A and 100 units/ml streptomycin) and 10% heat-inactivated fetal bovine serum (Gibco/BRL) and maintained at 37° C in a humidified incubator containing 5% CO2.
Nitrite assay. The nitrite concentration in the medium was measured as an indicator of NO production according to the Griess reaction (Kim et al., J. Immunol. 153: 4741-4748). One hundred microliters of each supernatant was. mixed with the same volume of Griess reagent (1% sulfanilamide in 5% phosphoric acid and 0. 1% naphthylethylenediamine dihydrochloride in water); absorbency of the mixture at 550 nm was determined with an enzyme-linked immunosorbent assay plate reader (Dynatech MR-7000; Dynatech Labs, Chantilly, Va.).
The effects of flavonoids, ellagitannins, anthraquinones on LPS-induced NO production in macrophages were studied as follows. The chemical structures of two flavonoids (myricitrin, N1; oroxylin A, N2) four ellagitannins (penta-O-galloyl-β-glucopyranose, N3; woodfordin C, N4; onothein B, N5; cuphiin, N6), and two anthraquinones (emodin, N7; physcion, N8) that were used in the present study were shown in FIG. 1. The effects of these eight compounds on NO production in RAW264.7 macrophages were investigated. The accumulated nitrite in the culture medium was used as an index for NO synthesis from these cells. […]

iNOS [2] = test: Direct iNOS enzyme activity assay in RAW 264.7 cell lysates; type: biochemical, mouse
COX-2 [3] = test: LPS-induced COX-2 expression in RAW264.7 macrophages (western/northern blot); type: cell-based, mouse
Procedure: as §1
(§2) Western blots. Total cellular extract, cytosolic fractions (for IkB) and nuclear fraction (for p65 antibody) were prepared according to Muller et al., Immunobiology, 187, 233-256, 1993 and separated on sodium dodecyl sulfatepolyacrylamide minigels (8% for iNOS or COX-2, and 10% for IkB or p65) and transferred to immobilon polyvinylidene difluoride membranes (Millipore, Bedford, Mass.). The membrane was incubated overnight at 4° C. with 1% bovine serum albumin and then incubated with anti-iNos, COX-2, α-Tubulin monoclonal antibodies (Transduction Laboratories, Lexington, Ky.), anti-IkB or anti-p65 polyclonal antibodies (Santa Cruz Biochemicals, Santa Cruz, Calif.). iNOS, IkB, p65, Cox-2, α-Tubulin were detected by NBT and BCIP staining (Sigma Chemical Co., St. Louis, Mo.).

iNOS [4] = test: Indirect iNOS enzyme assay: NO in medium of LPS-pretreated intact RAW 264.7 cells; type: cell-based, mouse
COX-2 [5] = test: COX-2 enzyme activity: PGE2 from added arachidonic acid in LPS-treated RAW 264.7 cells; type: cell-based, mouse; conditions: for PGE2: then arachidonic acid (100 μM) 15 min
iNOS [6] = test: LPS-induced iNOS expression in RAW264.7 macrophages (western/northern blot); type: cell-based, mouse; conditions: NLA (or L-NAME) plus LPS co-treated
Procedure: as §1, §2
Northern blot analysis. Total RNA (20 μg/lane) were separated by electrophoresis on 1.2% agarose gel containing 6.7% formaldehyde and transformed to a Hybond-N nylon membrane (American Life Science) in 20×standard saline citrate (3 M sodium chloride and 0.3 M sodium citrate, pH 7.0). After heating at 80° C. for 2 hours and prehybridization for 4 hours, the filters were hybridized with ^32P-labeled murine iNOS cDNA probes at a concentration of 3×10^6 cpm/ml for 16-18 hours at 42° C. The probe was labeled with [α-32P] dCTP by using Random Primer labeling kit (Stratagene, La Jolla, Calif.). Then, the filters were washed, dried and autoradiographed with Kodak-X-Omat XAR-film using intensifying screens at −80° C.

[7] = system: LPS-induced PGE2 production in RAW 264.7 macrophages; test: LPS-induced PGE2 production in RAW 264.7 macrophages (co-treatment); type: cell-based, mouse; conditions: 24 hours
Procedure: Un-stimulated RAW 264.7 macrophages in culture medium for 24 hours produced basal amount of PGE2 (1.5 ng/mL) in the medium.

[8] = system: porcine cerebral arteries; test: In vitro tissue bath vasorelaxation of precontracted porcine cerebral arteries; conditions: for relaxation of cerebral arteries: concentrations as high as 100 μM, n=4
[9] = LPS + L-NAME (2 mM) + compound 40 μM
[10] = LPS + NLA (2 mM) + compound 40 μM
[11] = arteries without endothelial cells, U-46619

Compound: O=c1cc(-c2ccccc2)oc2cc(O)c(O)c(O)c12 [baicalein]
- NO [1, 9]: 7.9 ± 1.2 μmole/4 × 10^5
- NO [1, 10]: 8.3 ± 1.3 μmole/4 × 10^5
- IC50 ([1]; Mus musculus, RAW264.7, together with LPS (100 μg/mL) for 24 hours, n=3, read-out: IC50 in inhibiting LPS-induced NO production): 19.4 ± 1 µM
- LPS-induced nitrite production ([1]; different concentrations together with LPS for 24 hours): significant concentration-dependent inhibition
- direct effect on iNOS enzyme activity (iNOS [2]): did not directly affect
- iNOS specific activity: NO formation (iNOS [2]; 20 μM added to lysate of LPS (100 ng/mL, 12 hr)-treated cells): 7.2 ± 0.1 μM/200 μg total protein
- iNOS specific activity: NO formation (iNOS [2]; 40 μM added to lysate of LPS (100 ng/mL, 12 hr)-treated cells): 9.2 ± 1.8 μM/200 μg total protein
- iNOS specific activity: NO formation (iNOS [2]; lysates of LPS-pretreated cells incubated with 20 μM for 12 hours): 9.8 ± 2.3 μM/200 μg protein
- iNOS specific activity: NO formation (iNOS [2]; lysates of LPS-pretreated cells incubated with 40 μM for 12 hours): 8.1 ± 1.9 μM/200 μg protein
- NO production by direct enzyme activity assay, compound added to lysate (Table 3) (iNOS [2]; lysates of LPS-treated cells): did not inhibit
- LPS-induced COX-2 protein (COX-2 [3]; 20, 40 μM with LPS (100 ng/mL) for 24 hours): did not inhibit
- basal COX-2 expression, compound alone (COX-2 [3]; no LPS): did not affect
- NO in medium (iNOS [4]; 20 μM added for 12 hours after LPS (100 ng/ml) 12 hours pretreatment): 15.4 ± 0.3 μM/6 × 10^5 cells
- NO in medium (iNOS [4]; 40 μM added for 12 hours after LPS (100 ng/ml) 12 hours pretreatment): 13.1 ± 0.9 μM/6 × 10^5 cells
- iNOS enzyme activity in intact cells by nitrite production in the medium (iNOS [4]; added to cells pre-treated with LPS): did not affect
- direct effect on COX-2 enzyme activity (COX-2 [5]): did not directly affect
- PGE2 (COX-2 [5]; 20 μM for 30 min after LPS 6 hours): 6.1 ± 0.2 ng/mL
- PGE2 (COX-2 [5]; 40 μM for 30 min after LPS 6 hours): 6.2 ± 0.5 ng/mL
- PGE2 production using added arachidonic acid as a substrate (COX-2 [5]; added after COX-2 induction by LPS): no decrease
- increased expression of iNOS in NLA or L-NAME plus LPS treated cells (iNOS [6]): inhibited
- PGE2 [7, 9]: 6.2 ± 0.5 ng/mL
- PGE2 [7, 10]: 5.5 ± 0.8 ng/mL

Compound: C[C@@H]1C(=O)O[C@H]2C[C@@]34[C@H]5C[C@@H](C(C)(C)C)[C@]36[C@@H](OC(=O)[C@@H]6O)O[C@@]4(C(=O)O5)[C@]21O [ginkgolide A, reference compound]
- relaxation of cerebral arteries [8]: very small relaxation or no response

Compound: O=C(O[C@@H]1Cc2c(O)cc(O)cc2O[C@@H]1c1cc(O)c(O)c(O)c1)c1cc(O)c(O)c(O)c1 [epigallocatechin gallate, reference compound]
- relaxation of cerebral arteries [8]: very small relaxation or no response

Compound: tetraethylammonium [TEA, reference compound]
- effect of the blocker on oroxylin A-induced relaxation [8]: significantly shifted the oroxylin A concentration response curves to the right; also recorded: almost abolished
- effect of the blocker/inhibitor on oroxylin A-induced relaxation [8]: concentration-dependently (1-10 mM) inhibited; also recorded: blocked

Compound: Nc1ccncc1 [4-aminopyridine, reference compound]
- effect of the blocker/inhibitor on oroxylin A-induced relaxation [8, 11]: significantly inhibited

Compound: Iberiotoxin (QFTDVDCSVSKECWSVCKDLFGVDRGKCMGKKCRCYQ; UniProt P24663 1-37, looked up) [reference compound]
- effect of the blocker/inhibitor on oroxylin A-induced relaxation [8, 11]: slightly but significantly inhibited

Compound: CC1C(=O)OC2C(O)C34C5CC(C(C)(C)C)C36C(OC(=O)C6O)OC4(C(=O)O5)C12O (centres unmarked) [ginkgolide B, reference compound]
- relaxation of cerebral arteries [8]: very small relaxation or no response
